Measured values from US11260003B2, “Antimicrobial composition and cosmetic containing antimicrobial composition” (ADEKA CORPORATION, priority 2017, dated 2022).

Key:
Type in all cases: cell-based
[1] = system: Escherichia coli ATCC 8739, Pseudomonas aeruginosa ATCC 9027, Staphylococcus aureus ATCC 6538, Candida albicans ATCC 10231, Aspergillus brasiliensis ATCC 16404; experiment: five-species minimum inhibitory concentration (five-species MIC), microplate turbidity test
Description: Test solutions containing these microorganisms were prepared as follows: the bacteria were precultured on SCD (soybean casein digest) liquid medium and the yeast and fungus were precultured on glucose agar medium; this was followed in each case by adjustment of the microorganism concentration in the liquids to the level of 10^6 to 10^7 cfu/mL using 0.9% aqueous NaCl solution.
20 μL of each test solution was dispensed onto a microplate; 180 μL of each antimicrobial composition—prepared by the dilution with medium of component (B) and component (C) at the prescribed concentrations given in Table 1 and component (A) at various concentrations was added; and stirring was carried out to provide a mixed solution (the test sample). Component (A), component (B), and component (C) were prepared here so as to provide the prescribed concentrations in mass % in the mixed solutions. Each mixed solution was then cultured as follows: 48 hours in a thermostat at 33° C. for the bacterial mixed solutions; 3 days at 25° C. for the yeast mixed solutions; and 1 week at 25° C. for the fungus mixed solutions. The post-culture turbidity of each mixed solution was observed. For each microorganism, the mixed solutions containing component (A) at the various concentrations, and each blending condition for component (B) or component (C) (each of the mixed solutions), those mixed solutions were identified where turbidity or the presence of colonies/filaments was not seen (i.e., mixed solutions where growth of the test microorganism had been stopped). For each of the five microorganisms, the lowest component (A) concentration in the mixed solutions where growth had been stopped was designated the minimum inhibitory concentration. […] In addition, the antimicrobial activity (enhancement effect) was evaluated also using the numerical MIC values given in those instances where a “+” or “−” is provided.

[2] = system: Escherichia coli (bacteria) ATCC 8739; experiment: minimum inhibitory concentration (MIC), microplate turbidity test; details: mass % of component (A) (A-4 or A-5); 48 hours at 33° C.; component (B)/(C) at 5%
Description: (§1) E. coli: Escherichia coli (bacteria) ATCC 8739 Test solutions containing these microorganisms were prepared by preculture on SCD liquid medium followed by adjusting the microorganism concentration in the liquids to the level of 10^6 to 10^7 cfu/mL using a 0.9% aqueous NaCl solution. 20 μL of each test solution was dispensed onto a microplate; 180 μL of each antimicrobial composition—prepared by the dilution with medium of component (B) and component (C) at the prescribed concentrations and component (A) at various concentrations—was added; and stirring was carried out to provide a mixed solution (the test sample). Component (A), component (B), and component (C) were prepared here so as to provide the prescribed concentrations in mass % in the mixed solutions. Each mixed solution was then cultured for 48 hours in a thermostat at 33° C., after which the turbidity of each mixed solution was observed. […]

[3] = system: Pseudomonas aeruginosa (bacteria) ATCC 9027; experiment: as above; details: mass % of component (A) (A-4 or A-5); 48 hours at 33° C.; component (B)/(C) at 5%
Description: as §1, with “P. aer: Pseudomonas aeruginosa” for “E. coli: Escherichia coli”, “9027” for “8739”

| SMILES | MIC (%) E. coli [2] | MIC (%) P. aer [3] | further results |
| --- | --- | --- | --- |
| CCCCC(CC)COCC(O)CO (stereo not shown) [Comp. Ex. 1, 2-ethylhexyl glyceryl ether] |  |  | five-species MIC (%) ([1]; Table 1, mass % of component (A) A-1 at which growth of all five microorganisms stopped, component (B)/(C) at prescribed %): 1.00+ % |
| CCCCCCCCOCC(O)CO (stereo not shown) [Comp. Ex. 5, octyl glyceryl ether] |  |  | five-species MIC (%) ([1]; Table 2, mass % of component (A) A-2 at which growth of all five microorganisms stopped, component (B)/(C) at prescribed %): 0.50+ % |
| OCC(O)COC1CCCCC1 (stereo not shown) [Comp. Ex. 9, cyclohexyl glyceryl ether] |  |  | five-species MIC (%) ([1]; Table 3, mass % of component (A) A-3 at which growth of all five microorganisms stopped, component (B) at prescribed %): 3.00% |
| CCCCCCC(O)CO (stereo not shown) [Comp. Ex. 10, 1,2-octanediol] | 0.13% | 0.38% |  |
| CCCCCCOCC(O)CO (stereo not shown) [compound 14, hexyl glyceryl ether] | 0.25% | 0.75% |  |
